The text below walks through data of patent US20100158846A1, “HAIR-BINDING PEPTIDES” (E. I. DU PONT DE NEMOURS AND COMPANY, priority 2008, published 2010).

The conditions of this test: biotinylated peptide binding to gray human hair bundle; streptavidin-HRP/TMB, A450; calculated from Scatchard plots. How it is done:
Then, the streptavidin-horseradish peroxidase (HRP) conjugate (Pierce Chemical Co., Rockford, Ill.) was added to each well (1.0 μg per well), and incubated for 1 h at room temperature, followed by 6 times of washes with TBST. […] The results were plotted as A450 versus the concentration of peptide using GraphPad Prism 4.0 (GraphPad Software, Inc., San Diego, Calif.).

As to “PLWRRITKRKLVRPVATLMWYWFTSKR-K(biotin)-NH2 [CXH-G2]”, the MB50 is 72 nM.
